Literature values, collected in patent publication US20140294799A1, “USE OF COMPOSITIONS HAVING A LOW POLYAMINE CONTENT IN THE PREVENTION OR TREATMENT OF ADVERSE EFFECTS LINKED TO CANCER TREATMENT” (NUTRIALYS MEDICAL NUTRITION SA, priority 2011, published 2014).

Test system: skin of irradiated animals
Settings: topical application to the skin of irradiated animals

Compound | effect on alopecia | effect on dermatitis
NCCCNCCCCNCCCN [spermine] | effective in the treatment of alopecia | –
N=C(N)NCCCCN [agmatine] | – | reduce dermatitis
